Experimental findings from article PMC11369160, “An outer membrane porin-lipoprotein complex modulates elongasome movement to establish cell curvature in Rhodospirillum rubrum” (Nature Communications, 2024) are described below.

Molecules are shown by their SMILES.

Holding throughout (experiment): microscale thermophoresis
(Microscale thermophoresis detects binding through changes in fluorescence in a small temperature gradient.)

In assay [1] the target is T1, A. baumannii OmpA (OmpA-like peptidoglycan-binding domain) (Acinetobacter baumannii, UniProt Q6RYW5).
T1 construct: gene omp38; isolated periplasmic OmpA-like domain, residues 221-339; His6-SUMO tag cut by Ulp1; E. coli Rosetta(DE3)pLysS; RED-NHS labelled
T1 sequence (Q6RYW5 221-339): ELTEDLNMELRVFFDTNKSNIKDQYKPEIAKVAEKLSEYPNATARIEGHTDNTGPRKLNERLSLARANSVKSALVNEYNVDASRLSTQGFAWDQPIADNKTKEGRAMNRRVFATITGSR

In assay [2] the target is T2, OmpA-like peptidoglycan-binding domain of R. rubrum PapS (Rhodospirillum rubrum, UniProt Q2RP23).
T2 construct: gene Rru_A3328; isolated C-terminal OmpA-like domain, residues 156-273; His6-SUMO tag cut by Ulp1; E. coli Rosetta(DE3)pLysS; RED-NHS labelled
T2 sequence (Q2RP23 entry or part of it): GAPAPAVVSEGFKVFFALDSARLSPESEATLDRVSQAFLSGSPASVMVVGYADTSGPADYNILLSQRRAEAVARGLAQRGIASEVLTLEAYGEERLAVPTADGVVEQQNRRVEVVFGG
The text has this:
microscale thermophoresis on OmpA-like peptidoglycan-binding domain of R. rubrum PapS | isolated OmpA-like domain of PapS bound mDAP in vitro, albeit with lower affinity

The target of assay [3] is T3, OmpA-like peptidoglycan-binding domain of R. rubrum PapS (Rhodospirillum rubrum, UniProt Q2RP23, R223A).
T3 construct: gene Rru_A3328; isolated C-terminal OmpA-like domain, residues 156-273; His6-SUMO tag cut by Ulp1; E. coli Rosetta(DE3)pLysS; RED-NHS labelled
T3 sequence (Q2RP23 entry or part of it R223A): as the sequence (Q2RP23 entry or part of it) above, with R68A counted along it
As to conditions: MST buffer 25 mM HEPES/NaOH pH 8, 50 mM NaCl, 0.1% Tween; 25 °C; 100 nM RED-NHS labelled protein; mDAP 1.5 µM to 50 mM.

Take `N[C@H](CCC[C@H](N)C(=O)O)C(=O)O` [mDAP]: the dissociation constant (Kd) in assay [1] stood at 9 µM; in assay [2] it was 2500 µM. Also, the mDAP binding result in assay [3] is “In vitro analysis verified that the mutant domain no longer showed mDAP-binding activity”.

As a reminder, the Kd is the free concentration of one partner at which half of the binding sites on the other are occupied at equilibrium, for simple one-to-one binding. A high value points to lower affinity.
